Where “and” joins values, the source holds several entries; their conditions need not be identical. Equal entries are not always repeated.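 These data come from cells grown in 96-well plates and exposed to compound for 48 hours at five concentrations. GI50 is the concentration that inhibits growth by half. TGI marks complete inhibition of growth.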
How the values were obtained:
Assay in all cases: DTP human tumour cell line panel, 48 h
[1] = tested on: HCC-2998 colon
[2] = tested on: NCI/ADR-RES ovarian
[3] = tested on: 786-0 renal
[4] = tested on: HL-60(TB) leukemia
[5] = tested on: SR leukemia
[6] = tested on: TK-10 renal
[7] = tested on: DU-145 prostate
[8] = tested on: U251 CNS
[9] = tested on: BT-549 breast
[10] = tested on: MOLT-4 leukemia

Row | SMILES | GI50 [1] | TGI [1] | GI50 [2] | TGI [2] | GI50 [3] | TGI [3] | GI50 [4] | TGI [4] | GI50 [5] | TGI [5] | GI50 [6] | TGI [6] | GI50 [7] | TGI [7] | GI50 [8] | TGI [8] | GI50 [9] | TGI [9] | GI50 [10] | TGI [10]
1 | Cc1cc2c(cc1Cl)SC1=NN(C)C(c3ccccc3O)N1S2(=O)=O (stereo not drawn) | 65500 nM | > 100 µM | 39 µM | > 100 µM | > 100 µM | > 100 µM | > 100 µM | > 100 µM | 36600 nM | > 100 µM | 82.1 µM | > 100 µM | 65.7 µM | > 100 µM | 47.7 µM | > 100 µM | 95.2 µM | > 100 µM | > 100000 nM | > 100 µM
2 | CCOC(=O)Cc1csc(NC(=O)C(OC(=O)c2ccc(N)cc2)c2ccccc2)n1 (stereo not drawn) | 60000 nM | > 100 µM | 43.5 µM | > 100 µM | 48.6 µM | > 100 µM | 18.4 µM | 92.5 µM | 21200 nM | > 100 µM | 56.6 µM | > 100 µM | 48.3 µM | > 100 µM | 45.5 µM | > 100 µM | 40.3 µM | > 100 µM | 24800 nM | > 100 µM
3 | COc1cc(C(=O)N/N=C/c2cccc([N+](=O)[O-])c2)cc(OC)c1OC | 7950 nM | 59.5 µM | 3.55 µM | 59.2 µM | 5.8 µM | > 100 µM | 0.762 µM | 10.2 µM | 558 nM | > 100 µM | 25.2 µM | > 100 µM | 7.1 µM | > 100 µM | 4.47 µM | 26.1 µM | 4.95 µM | 86.6 µM | 3980 nM | > 100 µM
4 | CC1(C)CC2(C)OC2C2(C1)N=NC(=Nc1ccccc1)O2 (stereo not drawn) | 13200 nM | 26.6 µM | 4.44 µM | 55.2 µM | 2.33 µM | 5.63 µM | 5.26 µM | 26.1 µM | 2560 nM | 8.68 µM | 3.44 µM | 8.31 µM | 4.78 µM | 18.7 µM | 13 µM | 26 µM | 2.22 µM | 4.99 µM | 2630 nM | 9.96 µM
5 | CC[C@@]1(OC(=O)CN(C)C)C(=O)OCc2c1cc1n(c2=O)Cc2cc3ccccc3nc2-1 | 322 nM | 1.32 µM and 1.76 µM | 0.0377 µM |  |  | 1.11 µM and 0.125 µM | 0.0282 µM | 0.389 µM and 0.179 µM | 2.09 nM | 0.114 µM and < 0.0427 µM | 0.481 µM | 7.85 µM | 0.0207 µM | 0.246 µM and 0.484 µM | < 0.0175 µM | 0.958 µM and 0.425 µM | 0.116 µM | 4.09 µM and 8.64 µM |  | 0.318 µM and 0.344 µM
6 | CCN(CC)CCOc1ccc(C2=C(c3ccccc3)CCc3cc(OC)ccc32)cc1 | 1390 nM | 2.81 µM | 3.17 µM | 12.7 µM | 1.51 µM | 2.88 µM | 8.99 µM | 26 µM | 518 nM |  | 2.74 µM | 9.47 µM | 6.69 µM | 17.5 µM | 2.29 µM | 7.07 µM | 4.17 µM | 15.2 µM | 4640 nM | 21.3 µM
7 | COc1cc(OC)cc(N2CCN(C(=O)Nc3nc4cc(F)ccc4nc3OC)CC2)c1 | 44.5 nM and 37.7 nM and 38.1 nM | 31.4 µM and 27.1 µM | < 0.0148 µM and 0.0274 µM and 0.012 µM | 45 µM and 28.8 µM | 0.0487 µM and 0.046 µM and 0.0362 µM | 31 µM and 22.1 µM | 0.0226 µM and 0.0299 µM and 0.0261 µM |  | < 18 nM and 41.5 nM and 26.8 nM | 20.2 µM and 24.8 µM | 16.6 µM and 10.3 µM | 71.6 µM and 63.8 µM | 0.0438 µM and 0.0429 µM and 0.0403 µM | > 100 µM and 34.9 µM | 0.0356 µM and 0.0448 µM and 0.0428 µM | 27.3 µM and 20.2 µM | 0.0345 µM and 0.0458 µM and 0.0335 µM | 2.49 µM and 2.33 µM and 0.498 µM | 49 nM and 45.7 nM and 44 nM | 31.1 µM and 30.7 µM
8 | Cc1cc(N)c2ccccc2[n+]1CCCCCCCCCC[n+]1c(C)cc(N)c2ccccc21 | 253 nM | 4.52 µM and 2.76 µM and 9.8 µM | 5.42 µM and 13.2 µM | > 38.5 µM and 48.5 µM and 42.9 µM | 0.512 µM and 3.75 µM | 10.9 µM and 21.3 µM and 25.5 µM | 0.142 µM | 0.545 µM and 2.14 µM | 151 nM and 1070 nM | 0.656 µM and 3.95 µM and 4.37 µM | 0.684 µM and 3.13 µM | 7.63 µM and 15.5 µM and 24.3 µM | 0.23 µM | 2.59 µM and 20.2 µM | 0.145 µM and 1.15 µM | 1.05 µM and 1.94 µM and 6.52 µM | 0.304 µM and 1.5 µM | 1.57 µM and 3.29 µM and 5.32 µM | 549 nM and 1410 nM | 1.38 µM and 3.23 µM and 4.08 µM
9 | C[C@H](NC(=O)CCC(F)(F)F)C(=O)N[C@@H]1C(=O)N(CCO)c2ncccc2-c2ccccc21 | > 100000 nM | > 100 µM | > 100 µM | > 100 µM | > 100 µM | > 100 µM | > 100 µM | > 100 µM | > 100000 nM | > 100 µM | > 100 µM | > 100 µM | > 100 µM | > 100 µM | > 100 µM | > 100 µM | > 100 µM | > 100 µM | > 100000 nM | > 100 µM
10 | Nc1ccc2c(c1)CN1C(=O)c3ccccc3C1=N2 |  | > 125 µM |  | > 125 µM | 36.8 µM | > 125 µM | 15.5 µM | > 125 µM | 26400 nM | > 125 µM | 16.8 µM | > 125 µM |  | > 125 µM | 35.7 µM | 121 µM |  | > 125 µM | 19200 nM | 96.5 µM and 58.2 µM
11 | CCCOc1c2cc(COC3OC(CO)C(O)C(O)C3O)cc1Cc1cc(COC3OC(CO)C(O)C(O)C3O)cc(c1OCCC)Cc1cc(COC3OC(CO)C(O)C(O)C3O)cc(c1OCCC)Cc1cc(COC3OC(CO)C(O)C(O)C3O)cc(c1OCCC)C2 (stereo not drawn) |  | > 100 µM |  | > 100 µM | > 100 µM and 28.1 µM | > 100 µM and 89.8 µM | 27.8 µM and 78 µM and 7.86 µM | 77.7 µM and > 100 µM and 21.6 µM | 29900 nM and 13800 nM | 48.9 µM and 29.5 µM | > 100 µM and 46.8 µM | > 100 µM | > 100 µM and 35.1 µM | > 100 µM | 49.3 µM and 48.5 µM and 16.6 µM | > 100 µM and 31.6 µM | > 100 µM and 72.8 µM and 21.8 µM | > 100 µM and 36.4 µM |  | 29 µM
12 | N#CC1(C#N)C2C=CC(C3CCC=C32)C1(C#N)C#N (stereo not drawn) |  | > 10 µM |  | > 10 µM |  | > 9.04 µM |  | 3.81 µM |  | > 10 µM |  | > 9.01 µM |  | > 10 µM |  | > 10 µM |  | > 10 µM |  | 6.52 µM

— PubChem BioAssay (NCI)
